# Source: patent US20030139442A1, “Vasoactive agents” (priority 2002, published 2003)
# Molecular target: T1, human GPR14 (Homo sapiens, UniProt Q9UKP6)
# T1 construct: expressed in transfected cells
# T1 sequence (Q9UKP6 1-389): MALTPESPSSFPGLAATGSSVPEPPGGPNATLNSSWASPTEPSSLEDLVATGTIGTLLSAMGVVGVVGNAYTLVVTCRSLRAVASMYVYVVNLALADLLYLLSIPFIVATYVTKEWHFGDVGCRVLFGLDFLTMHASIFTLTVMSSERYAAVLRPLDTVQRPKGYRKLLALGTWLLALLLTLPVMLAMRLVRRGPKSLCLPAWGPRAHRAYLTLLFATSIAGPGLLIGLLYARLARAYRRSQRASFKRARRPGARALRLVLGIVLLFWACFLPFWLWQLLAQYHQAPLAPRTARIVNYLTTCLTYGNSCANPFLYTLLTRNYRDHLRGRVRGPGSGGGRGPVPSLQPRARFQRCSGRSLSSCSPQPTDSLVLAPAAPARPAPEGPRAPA
# Assay: Inhibition of binding of [125I]-labeled human urotensin II to GPR14 using human GPR14-expressing CHO cell fraction
# Conditions: 1 nM [125I]-labeled human urotensin II; human GPR14-expressing CHO cell membrane fraction; 25° C., 3 hours; read-out: Inhibitory concentration (concentration showing 50% inhibition of human GPR14 binding activity)
# Protocol: To 1×10^8 CHO/GPR14 cells were added 10 ml of homogenate buffer (10 mM NaHCO3, 5 mM EDTA, 0.5 mM PMSF, 1 μg/ml pepstatin, 4 μg/ml E64, 20μg/ml leupeptin), and disrupted using Polytron (12,000 rpm, 1 minute). Cell debris solution was centrifuged at 1,000 g for 15 minutes to obtain a supernatant. The supernatant was then […] (in Beckman type 30 rotor, 30,000 rpm, 1 hour), and the resultant precipitant was collected as human GPR14-expressing CHO cell fraction.
# Isotope-labeled human urotensin II to be used in experiments for testing inhibition of binding was prepared as described below. 5 μg of human urotensin II (available from Peptide Institute, Inc.) was dissolved in 25 μl of 0.4M sodium acetate (pH 5.6). […]
# Human GPR14-expressing CHO cell fraction was diluted in a membrane diluting buffer (20 mM phosphate buffer (pH7.3), 150 mM NaCl, 5 mM MgCl2, 0.1% BSA, 0.05% CHAPS, 0.5 mM PMSF, 0.1 μg/ml Pepstatin, 20 μg/ml Leupeptin, 4 μg/ml E-64) to prepare a solution of cell membrane fraction (protein concentration:3 μg/ml) for assay. […] Next, the filter was washed three times with membrane diluting buffer (0.2 ml), added with 20 μl of Microscinti 20 (Packard), and determined for radioactivity in Topcount (Packard). Specific-binding is calculated by subtracting non-specific binding from the total binding. […]
structure (smiles),measurement,value
Nc1c2c(nc3ccc(-c4ccsc4)cc13)N(Cc1ccccc1)CC2 [compound 3],IC50,0.033 µM
